This passage reports T/C results from PubChem BioAssay AID248 (DTP/NCI, 2004).

Each structure is given as a SMILES string. “And” between values parts separate entries of the source, which are not always exact repeats. Equal entries are not always repeated. Toxic doses and inconclusive results are not listed.

For this assay, the system named is L1210 leukemia ip in BDF1 mice, survival T/C. Briefly: NCI In Vivo Anticancer Drug Screen. Data for tumor model L1210 Leukemia (intraperitoneal) in B6D2F1 (BDF1) mice. Particulars: endpoint: mean survival time, higher = longer survival. The procedure, abridged:
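Ratio derived from survival: compound-dosed mice over vehicle-dosed mice, all bearing a transplantable tumor.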

Where [1] appears, read: dose: 25.0 mg/kg/injection, schedule: Q04DX003 (ip), vehicle: saline with Tween-80.
The mark [2] stands for this setting: dose: 50.0 mg/kg/injection, schedule: Q04DX003 (ip), vehicle: saline with Tween-80.
The mark [3] stands for this setting: dose: 100.0 mg/kg/injection, schedule: Q04DX003 (ip), vehicle: saline with Tween-80.
[4] abbreviates: dose: 100.0 mg/kg/injection, schedule: Q01DX009 (ip), vehicle: saline with Tween-80.
The mark [5] stands for this setting: dose: 200.0 mg/kg/injection, schedule: Q04DX003 (ip), vehicle: saline with Tween-80.
Setting [6] is: dose: 400.0 mg/kg/injection, schedule: Q01DX009 (ip), vehicle: saline with Tween-80.
The mark [7] stands for this setting: dose: 400.0 mg/kg/injection, schedule: Q04DX003 (ip), vehicle: saline with Tween-80.
The mark [8] stands for this setting: dose: 100.0 mg/kg/injection, schedule: Q01DX009 (ip), vehicle: saline.
Setting [9] is: dose: 100.0 mg/kg/injection, schedule: Q04DX002 (ip), vehicle: Klucel (hydroxypropylcellulose) (HPC).
[10] abbreviates: dose: 200.0 mg/kg/injection, schedule: Q04DX002 (ip), vehicle: Klucel (hydroxypropylcellulose) (HPC).
[11] abbreviates: dose: 400.0 mg/kg/injection, schedule: Q04DX002 (ip), vehicle: Klucel (hydroxypropylcellulose) (HPC).
Setting [12] is: dose: 50.0 mg/kg/injection, schedule: Q01DX001 (ip), vehicle: carboxymethylcellulose (CMC).
Setting [13] is: dose: 100.0 mg/kg/injection, schedule: Q01DX001 (ip), vehicle: carboxymethylcellulose (CMC).
Setting [14] is: dose: 200.0 mg/kg/injection, schedule: Q01DX001 (ip), vehicle: carboxymethylcellulose (CMC).
Where [15] appears, read: dose: 400.0 mg/kg/injection, schedule: Q01DX001 (ip), vehicle: carboxymethylcellulose (CMC).
Where [16] appears, read: dose: 100.0 mg/kg/injection, schedule: Q04DX002 (ip), vehicle: saline with Tween-80.
[17] abbreviates: dose: 200.0 mg/kg/injection, schedule: Q04DX002 (ip), vehicle: saline with Tween-80.
[18] abbreviates: dose: 400.0 mg/kg/injection, schedule: Q04DX002 (ip), vehicle: saline with Tween-80.
The mark [19] stands for this setting: dose: 200.0 mg/kg/injection, schedule: Q01DX009 (ip), vehicle: saline with Tween-80.
[20] abbreviates: dose: 25.0 mg/kg/injection, schedule: Q01DX009 (ip), vehicle: saline with Tween-80.
The mark [21] stands for this setting: dose: 50.0 mg/kg/injection, schedule: Q01DX009 (ip), vehicle: saline with Tween-80.

In the case of `Brc1ccc(C[n+]2ccccc2)cc1`, the T/C was 98 % of control (dose: 12.5 mg/kg/injection, schedule: Q04DX003 (ip), vehicle: saline); 93 % of control (dose: 18.75 mg/kg/injection, schedule: Q01DX009 (ip), vehicle: saline); 97 % of control (dose: 25.0 mg/kg/injection, schedule: Q04DX003 (ip), vehicle: saline); 91 % of control (dose: 37.5 mg/kg/injection, schedule: Q01DX009 (ip), vehicle: saline); 105 % of control (dose: 50.0 mg/kg/injection, schedule: Q04DX003 (ip), vehicle: saline); 92 % of control (dose: 75.0 mg/kg/injection, schedule: Q04DX003 (ip), vehicle: saline).
As for `COc1cc(/C=C\[N+](=O)[O-])ccc1O`, the T/C runs as follows: under setting [1], 93 % of control; under setting [2], 96 % of control; under setting [3], 95 % of control.
For `CCCOC(=O)NNC(=O)OCCC`, the T/C (dose: 75.0 mg/kg/injection, schedule: Q01DX009 (ip), vehicle: Klucel (hydroxypropylcellulose) (HPC)) was 93 % of control.
As for `CN(CCO)N=Nc1ccccc1C(N)=O`, the T/C runs as follows: under setting [4], 117 % of control; under setting [3], 105 % of control; under setting [5], 110 % of control; under setting [6], 162 % of control and 177 % of control; under setting [7], 104 % of control; (dose: 600.0 mg/kg/injection, schedule: Q01DX009 (ip), vehicle: saline with Tween-80) 176 % of control.
Regarding `N#CCCN(CCC#N)c1ccccc1`, the T/C is, setting by setting: under setting [8], 94 % of control; (dose: 200.0 mg/kg/injection, schedule: Q01DX009 (ip), vehicle: saline) 102 % of control; (dose: 400.0 mg/kg/injection, schedule: Q01DX009 (ip), vehicle: saline) 107 % of control.
On to `Cc1cccc(NC(=O)C2CCCCC2C(=O)O)c1C` (centres undefined), for which the T/C reads like this: under setting [9], 100 % of control; under setting [10], 107 % of control; under setting [11], 92 % of control.
With `Fc1ccc(NC(=S)Nc2cc(Cl)cc(Cl)c2)cc1`, the T/C is 96 % of control (dose: 7.5 mg/kg/injection, schedule: Q01DX Z (ip), vehicle: carboxymethylcellulose (CMC)); 93 % of control (dose: 15.0 mg/kg/injection, schedule: Q01DX Z (ip), vehicle: carboxymethylcellulose (CMC)); 100 % of control (dose: 30.0 mg/kg/injection, schedule: Q01DX Z (ip), vehicle: carboxymethylcellulose (CMC)); 98 % of control under setting [12]; 87 % of control (dose: 60.0 mg/kg/injection, schedule: Q01DX Z (ip), vehicle: carboxymethylcellulose (CMC)); 87 % of control (dose: 75.0 mg/kg/injection, schedule: Q01DX Z (ip), vehicle: carboxymethylcellulose (CMC)). In addition, the T/C runs as follows: under setting [13], 93 % of control; under setting [14], 95 % of control.
For the molecule `c1ccc2c(c1)c1c(c3ccccc32)CN2CCCC2C1` (centres undefined), the T/C is 105 % of control under setting [12], 105 % of control under setting [13], 92 % of control under setting [14] and 103 % of control under setting [15].
Consider `Oc1ccc2cc(Br)ccc2c1-c1c(O)ccc2cc(Br)ccc12`, for which the T/C under setting [16] was 97 % of control, the T/C under setting [17] was 94 % of control and the T/C under setting [18] was 87 % of control.
In the case of `CCCCCCC1CC2CCCCC2CC1CCCC` (centres undefined), the T/C is, setting by setting: under setting [13], 96 % of control; under setting [14], 100 % of control; under setting [15], 94 % of control.
`O=C(O)c1ccc([N+](=O)[O-])cc1F`: the T/C under setting [13] is 101 % of control; the T/C (dose: 100.0 mg/kg/injection, schedule: Q01DX009 (ip), vehicle: carboxymethylcellulose (CMC)) was 96 % of control and 116 % of control; the T/C under setting [9] is 90 % of control; the T/C (dose: 100.0 mg/kg/injection, schedule: Q04DX002 (ip), vehicle: carboxymethylcellulose (CMC)) is 102 % of control and 107 % of control; the T/C (dose: 100.0 mg/kg/injection, schedule: Q04DX003 (ip), vehicle: carboxymethylcellulose (CMC)) was 97 % of control; the T/C under setting [14] is 99 % of control. Moreover, the T/C reads like this: (dose: 200.0 mg/kg/injection, schedule: Q01DX009 (ip), vehicle: carboxymethylcellulose (CMC)) 107 % of control and 89 % of control; under setting [10], 104 % of control; (dose: 200.0 mg/kg/injection, schedule: Q04DX002 (ip), vehicle: carboxymethylcellulose (CMC)) 99 % of control and 110 % of control; (dose: 200.0 mg/kg/injection, schedule: Q04DX003 (ip), vehicle: carboxymethylcellulose (CMC)) 100 % of control; (dose: 400.0 mg/kg/injection, schedule: Q01DX009 (ip), vehicle: carboxymethylcellulose (CMC)) 89 % of control; under setting [11], 93 % of control. Besides, under “dose: 400.0 mg/kg/injection, schedule: Q04DX002 (ip), vehicle: carboxymethylcellulose (CMC)”, the T/C is 100 % of control and 86 % of control.
As for `COc1ccc(C(=O)Nc2cccc(C(F)(F)F)c2)cc1`, the T/C is 97 % of control (dose: 100.0 mg/kg/injection, schedule: Q01DX001 (ip), vehicle: saline with Tween-80); 100 % of control under setting [4]; 100 % of control and 105 % of control under setting [16]; 100 % of control (dose: 200.0 mg/kg/injection, schedule: Q01DX001 (ip), vehicle: saline with Tween-80); 121 % of control under setting [19]; 100 % of control and 108 % of control under setting [17]. Further, the T/C is, setting by setting: (dose: 400.0 mg/kg/injection, schedule: Q01DX001 (ip), vehicle: saline with Tween-80) 98 % of control; under setting [6], 118 % of control; under setting [18], 107 % of control and 90 % of control.
Consider `Oc1ccc(Cl)cc1C(c1cc(Cl)ccc1O)C(Cl)(Cl)Cl`, for which the T/C is 99 % of control (dose: 100.0 mg/kg/injection, schedule: Q04DX002 (ip), vehicle: saline + alcohol); 108 % of control (dose: 200.0 mg/kg/injection, schedule: Q04DX002 (ip), vehicle: saline + alcohol); 102 % of control (dose: 400.0 mg/kg/injection, schedule: Q04DX002 (ip), vehicle: saline + alcohol).
For `COc1ccc(C(=O)C(Br)C(Br)C(=O)O)cc1` (centres undefined), the T/C by setting is: (dose: 12.5 mg/kg/injection, schedule: Q01DX009 (ip), vehicle: saline with Tween-80) 93 % of control; under setting [20], 102 % of control; (dose: 25.0 mg/kg/injection, schedule: Q01DX009 (ip), vehicle: saline) 102 % of control; under setting [1], 98 % of control and 103 % of control; under setting [21], 104 % of control; (dose: 50.0 mg/kg/injection, schedule: Q01DX009 (ip), vehicle: saline) 100 % of control and 94 % of control. The T/C runs as follows: under setting [2], 100 % of control and 101 % of control and 103 % of control; (dose: 66.0 mg/kg/injection, schedule: Q04DX003 (ip), vehicle: saline) 102 % of control; under setting [4], 86 % of control; under setting [8], 97 % of control and 89 % of control; under setting [3], 100 % of control and 104 % of control and 107 % of control; (dose: 100.0 mg/kg/injection, schedule: Q04DX003 (ip), vehicle: saline) 106 % of control and 122 % of control and 92 % of control. The T/C by setting is: (dose: 150.0 mg/kg/injection, schedule: Q04DX003 (ip), vehicle: saline) 111 % of control; (dose: 200.0 mg/kg/injection, schedule: Q04DX003 (ip), vehicle: saline) 108 % of control.
For the molecule `[O-][n+]1ccc(Cl)c2ccsc21`, the T/C runs as follows: under setting [21], 102 % of control; under setting [4], 96 % of control; under setting [3], 103 % of control; under setting [19], 101 % of control; under setting [5], 97 % of control; under setting [7], 98 % of control.
In the case of `CC(=O)c1ccc(CC(C)C)cc1`, the T/C is 90 % of control (dose: 150.0 mg/kg/injection, schedule: Q01DX009 (ip), vehicle: Klucel (hydroxypropylcellulose) (HPC)) and 94 % of control (dose: 300.0 mg/kg/injection, schedule: Q01DX009 (ip), vehicle: Klucel (hydroxypropylcellulose) (HPC)).
With `CCCCc1c(Cl)nc(Cl)nc1Cl`, the T/C was 105 % of control under setting [20] and 88 % of control under setting [21].
